Here are results for three substances from paper PMC8472562, “Oral Peptide Vaccine against Hookworm Infection: Correlation of Antibody Titers with Protective Efficacy” (Vaccines, 2021).

Series [1] concerns the target T1, bovine trypsin (Bos taurus, UniProt P00760).
T1 construct: purchased Sigma-Aldrich
T1 sequence (P00760 24-246): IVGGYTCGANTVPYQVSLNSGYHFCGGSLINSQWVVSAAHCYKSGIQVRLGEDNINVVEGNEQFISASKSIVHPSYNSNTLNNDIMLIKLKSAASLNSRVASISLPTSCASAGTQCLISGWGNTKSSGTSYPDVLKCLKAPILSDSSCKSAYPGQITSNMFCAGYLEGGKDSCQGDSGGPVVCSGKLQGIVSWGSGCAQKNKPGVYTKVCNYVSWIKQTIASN
As to the kind of experiment: In vitro stability against proteolysis by bovine trypsin. It is filed as in vitro ADME. Conditions: bovine trypsin in PBS, 37 °C. As for the experimental part:
(§1) Enzyme 1000 U solution was prepared from bovine trypsin (10,000 U/mg, Sigma-Aldrich, Castle Hill, NSW, Australia) with 1 mM CaCl2 in 1 mL PBS, as reported previously. After preparation, 100 µL of enzyme solution was added to 400 µL of peptide solution (1.25 mg/mL) in PBS and incubated at 37 °C with shaking. To inhibit enzyme activity, 40 µL of TFA and acetonitrile mixture (1:2) was added to 60 µL aliquots of the mixture at each interval. The solution was analyzed by analytical HPLC with a calibration curve employing the compound’s peak at its characteristic retention time to determine intact compound concentration.

Series [2] is described as follows: Particle size distribution by dynamic light scattering and TEM. It counts as physicochemical. The settings on record: 0.2 mg/mL in PBS, 25 °C, angle 173°. As for the experimental part:
Particle size distribution was evaluated by preparing a 0.2 mg/mL solution of each pure compound in PBS and measured using dynamic light scattering (DLS; Zetasizer Nano ZP) at 25 °C and an angle of 173°.
Compounds were evaluated by transmission electron microscopy using a JEM-1010 microscope (JEOL LTD, Tokyo, Japan) at 100 kV. The images were analyzed using AnalySIS® software (Megaview III, Munster, Germany).

A further series concerns mutant APR-1M74. As to the kind of experiment: Serum anti-APR-1 IgG ELISA after oral immunization. It is filed as in vivo, BALB/c mice. The settings on record: oral gavage 4 × 100 µg, two-week intervals, n = 8/group.
Series [3] has as its system p3 epitope. It is filed as in vivo, BALB/c mice. The settings on record: oral gavage 4 × 100 µg; ELISA. Background: ELISA stands for enzyme-linked immunosorbent assay.
Series [4] is described as follows: Secondary structure by ATR-FTIR. It is filed as physicochemical. The settings on record: 2 mg/mL in PBS, 25 °C, triplicate spectra, second derivative. On the procedure: The compounds’ secondary structures were evaluated according to the methodology of Yang et al.. Solutions of each compound in PBS (2 mg/mL) were prepared and placed on the diamond-attenuated total reflectance accessory of the ATR-FTIR, and absorbance spectra were collected from 500 and 4000 cm^−1, in triplicate, at 25 °C and 4 cm^−1 resolution. The first and second derivative of the absorbance spectra were generated and analyzed using Originpro 2020 software. The second derivative secondary structure component-peak assignment was also detected and quantified using Originpro 2020 software.

In series [5] the test system is T2, bovine trypsin.
T2 construct: purchased Sigma-Aldrich
Nature of the series: In vitro stability against proteolysis by bovine trypsin. It counts as in vitro ADME. The settings on record: bovine trypsin 1000 U solution, 1 mM CaCl2 in PBS, 37 °C with shaking, analytical HPLC. As for the experimental part: as §1

The test system of series [6] is p3 epitope. It is filed as in vivo, BALB/c mice. Conditions: oral gavage 4 × 100 µg, two-week intervals, n = 8/group; ELISA; compared to PBS group or between groups.
Series [7] concerns Nippostrongylus brasiliensis. It counts as in vivo, BALB/c mice. The settings on record: oral 4 × 100 µg; 750 L3 larvae s.c.; 7 days post-infection; one-way ANOVA and Mann Whitney U-test against negative control.

Entries after “also recorded” stand apart in the source; their conditions may differ. Bridge positions count the residues as written; N and C are the ends. I, II: the chains in the order shown.

As for “Ac-TSLIAGPKAQVEAIQKYIGAELKKLIPNASLIENCTKAELSKKKK-NH2 [p3-P25]”, the “time to almost complete degradation by trypsin” value on bovine trypsin [1] (analytical HPLC) is “less than 30 min”.
As to “Ac-LLLLLLLLLLTSLIAGPKAQVEAIQKYIGAELKKLIPNASLIENCTKAELSKKKK-NH2 (N-terminus and C-terminus assumed) [LL10]”, in series [2] (DLS), the “polydispersity index (PDI)” value was 0.36 ± 0.1. Further, the nanoparticle size in series [2] (self-assembled, electron microscopy and DLS, LCP, BL10, LL10 also formed aggregates) was 22 nm. In the series with mutant APR-1M74, the “serum anti-APR-1 IgG titers” value is recorded as “highest”. Moreover, the “mucosal antibody responses (saliva and fecal extracts, IgA and IgG)” value in the series with p3 epitope [3] is “detectable”. In series [4], this substance displayed a β-sheet contribution of 6%. Also, in the series with bovine trypsin [5] (100 µL enzyme + 400 µL peptide 1.25 mg/mL, 30 min, read-out: degradation after 30 min of incubation with trypsin), the metabolised at 0.5 h, 1 mg/mL was 25%. In the series with bovine trypsin [5] (peptide 1.25 mg/mL, 60 min, read-out: conjugate remained intact after 60 min), the remaining at 1 h, 1 mg/mL came out at 15%. In addition, in the series on p3 epitope [6], the “serum p3-IgG titers” value is given as “highest; also recorded: significantly higher”. For the same substance, in series [7], the “parasite and egg numbers after challenge infection, in words” value was “highest significant reduction in worm burden; also recorded: significantly reduced”.
In the case of “I: Ac-TSLIAGPKAQVEAIQKYIGAELKKLIPNASLIENCTKAELSKKKK-NH2 / II: Ac-LLLLLLLLLL (amide I:23-II:C) [BL10]”, at bovine trypsin [1] (one-way ANOVA with Tukey's test), the “stability against trypsin degradation, comparison in words” value is given as “significantly slower than p3-P25”.
